Measured values as given in patent publication US20180000085A1, “USE OF PICOLINAMIDE COMPOUNDS WITH FUNGICIDAL ACTIVITY” (DOW AGROSCIENCES LLC, priority 2014, published 2018).

Columns and labels:
Zymoseptoria tritici = experiment: Leaf blotch of wheat (SEPTTR) disease control on wheat seedlings; format: in vivo; set-up: key to SEPTTR 1DP, HV activity at 100 ppm (% control rating) / SEPTTR 3DC, HV activity at 100 ppm (% control rating) / SEPTTR disease control, 1DP / SEPTTR disease control, 3DC / SEPTTR 1DP disease control rating, HV activity / SEPTTR 3DC disease control rating, HV activity / SEPTTR 3DC, LV activity at 125.1 g/H (% Control rating) / SEPTTR 1DP, LV activity at 125.1 g/H (% Control rating) / SEPTTR 1DP disease control rating, LV activity at 125.1 g/H / SEPTTR 3DC disease control rating, LV activity at 125.1 g/H / SEPTTR 3DC disease control rating, HV activity at 100 ppm / SEPTTR 1DP disease control rating, HV activity at 100 ppm / HV activity at 100 ppm SEPTTR 3DC (disease control rating) / HV activity at 100 ppm SEPTTR 1DP (disease control rating) / LV activity at 125.1 g/H SEPTTR 1DP (disease control rating) / LV activity at 125.1 g/H SEPTTR 3DC (disease control rating): A: > 80; B: ≤ 80; C: Not Tested; D: No Activity Observed in the Reported Assay; conditions: for SEPTTR 1DP disease control rating, HV activity / SEPTTR 3DC disease control rating, HV activity: HV application at 100 ppm
Puccinia triticina = experiment: Wheat brown rust (PUCCRT) disease control on wheat seedlings; format: in vivo; set-up: key to PUCCRT 3DC, HV activity at 100 ppm (% control rating) / PUCCRT disease control, 3DC / PUCCRT 1DP disease control rating, HV activity / PUCCRT 3DC disease control rating, HV activity / PUCCRT 3DC, LV activity at 125.1 g/H (% Control rating) / PUCCRT 1DP, LV activity at 125.1 g/H (% Control rating) / PUCCRT 3DC disease control rating, LV activity at 125.1 g/H / PUCCRT 1DP disease control rating, LV activity at 125.1 g/H / PUCCRT 3DC disease control rating, HV activity at 100 ppm / PUCCRT 1DP disease control rating, HV activity at 100 ppm / HV activity at 100 ppm PUCCRT 3DC (disease control rating) / LV activity at 125.1 g/H PUCCRT 1DP (disease control rating) / LV activity at 125.1 g/H PUCCRT 3DC (disease control rating): A: > 80; B: ≤ 80; C: Not Tested; D: No Activity Observed in the Reported Assay; conditions: for PUCCRT 1DP disease control rating, HV activity / PUCCRT 3DC disease control rating, HV activity: HV application at 100 ppm
[1] = 1 Day Protectant, wheat leaf blotch
[2] = 3 Day Curative, wheat leaf blotch
[3] = 1 Day Protectant, wheat brown rust
[4] = 3 Day Curative, wheat brown rust
[5] = low volume application, 125.1 g/H, 1 Day Protectant
[6] = low volume application, 125.1 g/H, 3 Day Curative
[7] = high volume application, 100 ppm, 1 day protectant
[8] = high volume application, 100 ppm, 3 day curative
[9] = low volume application, 125.1 g/H, 1 day protectant
[10] = low volume application, 125.1 g/H, 3 day curative

SMILES | SEPTTR 1DP disease control rating, HV activity (Zymoseptoria tritici; [1]) | SEPTTR 3DC disease control rating, HV activity (Zymoseptoria tritici; [2]) | PUCCRT 1DP disease control rating, HV activity (Puccinia triticina; [3]) | PUCCRT 3DC disease control rating, HV activity (Puccinia triticina; [4]) | other results
CCC(CC)C(Oc1ccc(Cl)cc1)C(C)OC(=O)C(CC(C)C)NC(=O)c1nccc(OC)c1O (stereo not shown) [Cmpd 427] | D | D | B (≤ 80) | D | –
CC[C@H](CCC(C)C)[C@@H](OCC1CC1)[C@H](C)OC(=O)[C@H](C)NC(=O)c1nccc(OC)c1OCOC(C)=O [Cmpd 506] | – | – | – | – | SEPTTR 1DP, LV activity at 125.1 g/H (% Control rating) (Zymoseptoria tritici; [5]): B (≤ 80); SEPTTR 3DC, LV activity at 125.1 g/H (% Control rating) (Zymoseptoria tritici; [6]): B (≤ 80); PUCCRT 1DP, LV activity at 125.1 g/H (% Control rating) (Puccinia triticina; [5]): A (> 80); PUCCRT 3DC, LV activity at 125.1 g/H (% Control rating) (Puccinia triticina; [6]): B (≤ 80)
C=CC[C@@H](Oc1ccc(F)cc1F)[C@H](C)OC(=O)[C@H](C)NC(=O)c1nccc(OC)c1OC(C)=O [Cmpd 1081] | – | – | – | – | LV activity at 125.1 g/H SEPTTR 1DP (disease control rating) (Zymoseptoria tritici; low volume application, 125.1 g/H, 1 Day Protectant, wheat leaf blotch): D; LV activity at 125.1 g/H SEPTTR 3DC (disease control rating) (Zymoseptoria tritici; low volume application, 125.1 g/H, 3 Day Curative, wheat leaf blotch): D; LV activity at 125.1 g/H PUCCRT 1DP (disease control rating) (Puccinia triticina; low volume application, 125.1 g/H, 1 Day Protectant, wheat brown rust): A (> 80); LV activity at 125.1 g/H PUCCRT 3DC (disease control rating) (Puccinia triticina; low volume application, 125.1 g/H, 3 Day Curative, wheat brown rust): B (≤ 80)
CCC(CC)[C@H](Oc1cccc(F)c1)[C@H](C)OC(=O)[C@H](C)NC(=O)c1nccc(OC)c1O [Cmpd 419] | B (≤ 80) | B (≤ 80) | A (> 80) | D | –
CCCOC(CC)C(Oc1ccccc1)C(C)OC(=O)C(NC(=O)c1nccc(OC)c1OC(C)=O)C(C)C (stereo not shown) [Cmpd 451] | B (≤ 80) | A (> 80) | A (> 80) | A (> 80) | –
COc1ccnc(C(=O)N[C@@H](C)C(=O)O[C@@H](C)[C@H](Oc2ccc(Cl)cc2Cl)C(C)C)c1OCOC(=O)C(C)C [Cmpd 572] | – | – | – | – | SEPTTR 1DP, LV activity at 125.1 g/H (% Control rating) (Zymoseptoria tritici; [5]): B (≤ 80); SEPTTR 3DC, LV activity at 125.1 g/H (% Control rating) (Zymoseptoria tritici; [6]): B (≤ 80); PUCCRT 1DP, LV activity at 125.1 g/H (% Control rating) (Puccinia triticina; [5]): A (> 80); PUCCRT 3DC, LV activity at 125.1 g/H (% Control rating) (Puccinia triticina; [6]): A (> 80)
COc1ccnc(C(=O)N[C@@H](C)C(=O)O[C@@H](C)[C@H](Oc2ccc(F)cc2)C2CCCC2)c1O [Cmpd 840] | – | – | – | – | SEPTTR 1DP disease control rating, HV activity at 100 ppm (Zymoseptoria tritici; [7]): B (≤ 80); SEPTTR 3DC disease control rating, HV activity at 100 ppm (Zymoseptoria tritici; [8]): A (> 80); PUCCRT 1DP disease control rating, HV activity at 100 ppm (Puccinia triticina; [7]): A (> 80); PUCCRT 3DC disease control rating, HV activity at 100 ppm (Puccinia triticina; [8]): A (> 80)
C=CCC(Oc1ccccc1)C(C)OC(=O)C(C)NC(=O)c1nccc(OC)c1O (stereo not shown) [Cmpd 437] | B (≤ 80) | A (> 80) | A (> 80) | A (> 80) | –
CCCOC(C(C)C)C(C)OC(=O)C(C)NC(=O)c1nccc(OC)c1O (stereo not shown) [Cmpd 435] | D | D | B (≤ 80) | B (≤ 80) | –
CC(=O)Oc1cccnc1C(=O)NC(C)C(=O)OC(C)C(Oc1ccccc1)C(C)C (stereo not shown) [Cmpd 678] | – | – | – | – | SEPTTR 1DP disease control rating, LV activity at 125.1 g/H (Zymoseptoria tritici; [9]): A (> 80); SEPTTR 3DC disease control rating, LV activity at 125.1 g/H (Zymoseptoria tritici; [10]): B (≤ 80); PUCCRT 1DP disease control rating, LV activity at 125.1 g/H (Puccinia triticina; [9]): B (≤ 80); PUCCRT 3DC disease control rating, LV activity at 125.1 g/H (Puccinia triticina; [10]): D
